According to ChEMBL document CHEMBL1201862, “PubChem BioAssay data set” (2004):
Activity calls are given as the source filed them.

Key:
[1] = biological target: Heat shock protein HSP 90-alpha (Homo sapiens, UniProt P07900); assay type: functional, organism-based
[2] = inhibitors of clade B AD8 Env fusion, dose response, cell-based, cherry-pick (AID 652062); assay type: functional;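 also: luciferase signal from cell-cell fusion driven by HIV-1 clade B AD8 Env; potency is for inhibitors of fusion seen as a drop in luminescence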
[3] = cytotoxicity in HEK-293T cells, dose response, cytotoxicity control for TCR NF-kB inhibitor project, luminescence, T-cell screen hits (AID 489026); assay type: functional, cell-based;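 also: cells exposed to compound about 14 hours before the viability readout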
[4] = biological target: T1, RNA-binding protein pos-1 (Caenorhabditis elegans, UniProt G5EF15); assay: inhibitors of POS-1/mex-3 RNA binding, dose response, biochemical, fluorescence polarization (AID 1964);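 also: purified POS-1 fused to maltose binding protein made in E. coli; potency of compounds blocking POS-1 binding to fluorescent RNA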
T1 sequence (G5EF15 whole entry): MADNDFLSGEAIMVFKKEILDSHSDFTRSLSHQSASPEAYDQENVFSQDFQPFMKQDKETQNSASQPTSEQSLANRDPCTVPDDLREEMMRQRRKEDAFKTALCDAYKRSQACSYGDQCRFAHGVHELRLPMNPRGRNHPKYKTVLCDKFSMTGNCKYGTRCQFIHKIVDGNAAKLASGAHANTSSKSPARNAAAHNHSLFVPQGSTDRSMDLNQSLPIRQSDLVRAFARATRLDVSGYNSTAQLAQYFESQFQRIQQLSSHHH

[5] = biological target: T2, Zinc finger protein mex-5 (Caenorhabditis elegans, UniProt Q9XUB2); assay: MEX-5/TCR-2 RNA interaction inhibitors, dose response, biochemical, C. elegans, fluorescence polarization (AID 1960)
T2 sequence (Q9XUB2 whole entry): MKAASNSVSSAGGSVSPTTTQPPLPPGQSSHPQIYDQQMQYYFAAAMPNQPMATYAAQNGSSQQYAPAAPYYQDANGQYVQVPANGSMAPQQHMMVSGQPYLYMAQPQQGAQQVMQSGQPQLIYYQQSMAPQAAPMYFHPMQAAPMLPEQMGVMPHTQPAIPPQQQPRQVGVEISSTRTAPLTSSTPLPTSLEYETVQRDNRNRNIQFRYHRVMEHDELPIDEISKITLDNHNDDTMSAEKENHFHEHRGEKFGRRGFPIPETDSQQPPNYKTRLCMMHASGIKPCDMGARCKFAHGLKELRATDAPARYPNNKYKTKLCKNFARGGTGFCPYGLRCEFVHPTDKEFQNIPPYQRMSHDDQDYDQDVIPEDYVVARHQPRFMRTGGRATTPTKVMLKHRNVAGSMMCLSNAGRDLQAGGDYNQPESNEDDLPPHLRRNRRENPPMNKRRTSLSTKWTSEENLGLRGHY

Vero = Vero cell cytotoxicity, cytotoxicity control for flavivirus capping enzyme inhibitors (AID 588742); assay type: functional; settings: Chlorocebus sabaeus
[6] = biological target: T3, Corticotropin-releasing factor receptor 2/Corticotropin-releasing factor-binding protein (Homo sapiens, UniProt P24387+Q13324); assay: activators of CRF receptor 2 with binding protein – uHTS hits, confirmation (AID 602473); assay type: functional; settings: read-out: EC50_Mean
T3 sequence (Q13324 whole entry): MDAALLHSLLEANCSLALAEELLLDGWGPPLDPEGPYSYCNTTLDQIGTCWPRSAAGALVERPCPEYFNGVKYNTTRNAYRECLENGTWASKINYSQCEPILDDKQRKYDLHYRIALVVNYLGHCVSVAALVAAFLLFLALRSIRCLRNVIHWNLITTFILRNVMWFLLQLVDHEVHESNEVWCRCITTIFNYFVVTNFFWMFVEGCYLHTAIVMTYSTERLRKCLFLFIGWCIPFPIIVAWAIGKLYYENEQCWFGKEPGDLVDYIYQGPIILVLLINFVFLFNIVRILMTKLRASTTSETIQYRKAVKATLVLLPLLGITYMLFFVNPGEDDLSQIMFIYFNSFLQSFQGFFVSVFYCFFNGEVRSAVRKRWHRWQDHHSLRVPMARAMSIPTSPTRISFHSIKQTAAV
T3 sequence (P24387 whole entry): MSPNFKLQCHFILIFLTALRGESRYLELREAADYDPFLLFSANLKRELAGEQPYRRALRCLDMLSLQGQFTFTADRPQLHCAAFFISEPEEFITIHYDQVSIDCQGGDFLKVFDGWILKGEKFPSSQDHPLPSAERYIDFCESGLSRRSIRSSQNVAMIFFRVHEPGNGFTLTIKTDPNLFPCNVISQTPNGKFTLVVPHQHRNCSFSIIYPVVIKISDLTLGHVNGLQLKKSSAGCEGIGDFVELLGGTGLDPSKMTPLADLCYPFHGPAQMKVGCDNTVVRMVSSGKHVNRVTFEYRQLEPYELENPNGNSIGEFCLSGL

Protein skinhead-1 = biological target: T4, Protein skinhead-1 (Caenorhabditis elegans, UniProt P34707); assay type: functional
T4 sequence (P34707 whole entry): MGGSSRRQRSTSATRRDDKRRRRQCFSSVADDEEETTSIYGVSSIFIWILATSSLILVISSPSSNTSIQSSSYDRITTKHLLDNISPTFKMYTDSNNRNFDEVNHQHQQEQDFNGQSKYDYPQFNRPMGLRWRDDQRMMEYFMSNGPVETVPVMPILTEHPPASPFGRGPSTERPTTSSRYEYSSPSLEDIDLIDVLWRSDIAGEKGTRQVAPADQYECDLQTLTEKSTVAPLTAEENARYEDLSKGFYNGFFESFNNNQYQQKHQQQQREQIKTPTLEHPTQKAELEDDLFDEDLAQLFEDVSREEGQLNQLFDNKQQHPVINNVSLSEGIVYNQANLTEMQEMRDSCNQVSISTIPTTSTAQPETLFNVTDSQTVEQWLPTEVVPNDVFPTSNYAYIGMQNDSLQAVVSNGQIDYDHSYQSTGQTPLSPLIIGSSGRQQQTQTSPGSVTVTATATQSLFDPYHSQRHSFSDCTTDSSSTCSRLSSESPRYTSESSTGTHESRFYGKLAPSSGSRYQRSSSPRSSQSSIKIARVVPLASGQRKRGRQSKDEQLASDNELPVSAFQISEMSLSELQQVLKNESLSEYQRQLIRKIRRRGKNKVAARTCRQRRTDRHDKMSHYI

[7] = biological target: T3, Corticotropin-releasing factor receptor 2/Corticotropin-releasing factor-binding protein; assay: Dose Response confirmation of uHTS hits for small molecule antagonists of the CRF-binding protein and CRF-R2 receptor complex.; assay type: functional; settings: read-out: IC50_Mean
[8] = inhibitors of firefly luciferase expression or activity, dose response, H4 neuroglioma cells, luminescence (AID 1990); assay type: functional, cell-based
[9] = Luminescence Cell-Based Dose Response HTS to Identify Inhibitors of 5'UTR Stem-Loop Driven Prion Protein mRNA Translation in H4 Neuroglioblastoma Cells. [Related pubchem assays: 1827 (Project Summary), 1813 (Primary HTS)]; assay type: functional
[10] = inhibitors of SNCA 5'UTR-driven reporter translation, confirmation, H4 neuroglioma cells, luminescence (AID 1988); assay type: functional, cell-based
[11] = Luminescence Cell-Based Dose Retest to Confirm Inhibitors of Cancer Stem Cells. [Related pubchem assays (depositor defined):AID2717, AID2721]; assay type: functional; settings: Homo sapiens
[12] = ZM109 Env clade C HIV-1 fusion inhibitors, dose response, HeLa effector, CEM target cells, luciferase, cherry-pick (AID 652058); assay type: functional, cell-based
[13] = off-target signal loss in HeLa-CEM21 co-culture – HeLa F-luc CTL cells, cherry-picked, counter-screen for HIV-1 Env fusion inhibitor project, dose response (AID 652040); assay type: functional, cell-based;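 also: potency for signal decrease marking cytotoxic or nonspecific inhibition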
[14] = inhibitors of HIV Env-driven cell fusion, dose response, cherry-pick (AID 652057); assay type: functional, cell-based
Fatty acid synthase [15] = biological target: T5, Fatty acid synthase (Homo sapiens, UniProt P49327); assay: FAS thioesterase domain inhibitors, dose response, biochemical, endpoint fluorescence intensity, uHTS hits (AID 624327); assay type: functional;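 also: fluorescence from hydrolysis of an O-methyl fluorescein acyl ester substrate by the enzyme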
T5 sequence (P49327 whole entry, the tested form may be a part): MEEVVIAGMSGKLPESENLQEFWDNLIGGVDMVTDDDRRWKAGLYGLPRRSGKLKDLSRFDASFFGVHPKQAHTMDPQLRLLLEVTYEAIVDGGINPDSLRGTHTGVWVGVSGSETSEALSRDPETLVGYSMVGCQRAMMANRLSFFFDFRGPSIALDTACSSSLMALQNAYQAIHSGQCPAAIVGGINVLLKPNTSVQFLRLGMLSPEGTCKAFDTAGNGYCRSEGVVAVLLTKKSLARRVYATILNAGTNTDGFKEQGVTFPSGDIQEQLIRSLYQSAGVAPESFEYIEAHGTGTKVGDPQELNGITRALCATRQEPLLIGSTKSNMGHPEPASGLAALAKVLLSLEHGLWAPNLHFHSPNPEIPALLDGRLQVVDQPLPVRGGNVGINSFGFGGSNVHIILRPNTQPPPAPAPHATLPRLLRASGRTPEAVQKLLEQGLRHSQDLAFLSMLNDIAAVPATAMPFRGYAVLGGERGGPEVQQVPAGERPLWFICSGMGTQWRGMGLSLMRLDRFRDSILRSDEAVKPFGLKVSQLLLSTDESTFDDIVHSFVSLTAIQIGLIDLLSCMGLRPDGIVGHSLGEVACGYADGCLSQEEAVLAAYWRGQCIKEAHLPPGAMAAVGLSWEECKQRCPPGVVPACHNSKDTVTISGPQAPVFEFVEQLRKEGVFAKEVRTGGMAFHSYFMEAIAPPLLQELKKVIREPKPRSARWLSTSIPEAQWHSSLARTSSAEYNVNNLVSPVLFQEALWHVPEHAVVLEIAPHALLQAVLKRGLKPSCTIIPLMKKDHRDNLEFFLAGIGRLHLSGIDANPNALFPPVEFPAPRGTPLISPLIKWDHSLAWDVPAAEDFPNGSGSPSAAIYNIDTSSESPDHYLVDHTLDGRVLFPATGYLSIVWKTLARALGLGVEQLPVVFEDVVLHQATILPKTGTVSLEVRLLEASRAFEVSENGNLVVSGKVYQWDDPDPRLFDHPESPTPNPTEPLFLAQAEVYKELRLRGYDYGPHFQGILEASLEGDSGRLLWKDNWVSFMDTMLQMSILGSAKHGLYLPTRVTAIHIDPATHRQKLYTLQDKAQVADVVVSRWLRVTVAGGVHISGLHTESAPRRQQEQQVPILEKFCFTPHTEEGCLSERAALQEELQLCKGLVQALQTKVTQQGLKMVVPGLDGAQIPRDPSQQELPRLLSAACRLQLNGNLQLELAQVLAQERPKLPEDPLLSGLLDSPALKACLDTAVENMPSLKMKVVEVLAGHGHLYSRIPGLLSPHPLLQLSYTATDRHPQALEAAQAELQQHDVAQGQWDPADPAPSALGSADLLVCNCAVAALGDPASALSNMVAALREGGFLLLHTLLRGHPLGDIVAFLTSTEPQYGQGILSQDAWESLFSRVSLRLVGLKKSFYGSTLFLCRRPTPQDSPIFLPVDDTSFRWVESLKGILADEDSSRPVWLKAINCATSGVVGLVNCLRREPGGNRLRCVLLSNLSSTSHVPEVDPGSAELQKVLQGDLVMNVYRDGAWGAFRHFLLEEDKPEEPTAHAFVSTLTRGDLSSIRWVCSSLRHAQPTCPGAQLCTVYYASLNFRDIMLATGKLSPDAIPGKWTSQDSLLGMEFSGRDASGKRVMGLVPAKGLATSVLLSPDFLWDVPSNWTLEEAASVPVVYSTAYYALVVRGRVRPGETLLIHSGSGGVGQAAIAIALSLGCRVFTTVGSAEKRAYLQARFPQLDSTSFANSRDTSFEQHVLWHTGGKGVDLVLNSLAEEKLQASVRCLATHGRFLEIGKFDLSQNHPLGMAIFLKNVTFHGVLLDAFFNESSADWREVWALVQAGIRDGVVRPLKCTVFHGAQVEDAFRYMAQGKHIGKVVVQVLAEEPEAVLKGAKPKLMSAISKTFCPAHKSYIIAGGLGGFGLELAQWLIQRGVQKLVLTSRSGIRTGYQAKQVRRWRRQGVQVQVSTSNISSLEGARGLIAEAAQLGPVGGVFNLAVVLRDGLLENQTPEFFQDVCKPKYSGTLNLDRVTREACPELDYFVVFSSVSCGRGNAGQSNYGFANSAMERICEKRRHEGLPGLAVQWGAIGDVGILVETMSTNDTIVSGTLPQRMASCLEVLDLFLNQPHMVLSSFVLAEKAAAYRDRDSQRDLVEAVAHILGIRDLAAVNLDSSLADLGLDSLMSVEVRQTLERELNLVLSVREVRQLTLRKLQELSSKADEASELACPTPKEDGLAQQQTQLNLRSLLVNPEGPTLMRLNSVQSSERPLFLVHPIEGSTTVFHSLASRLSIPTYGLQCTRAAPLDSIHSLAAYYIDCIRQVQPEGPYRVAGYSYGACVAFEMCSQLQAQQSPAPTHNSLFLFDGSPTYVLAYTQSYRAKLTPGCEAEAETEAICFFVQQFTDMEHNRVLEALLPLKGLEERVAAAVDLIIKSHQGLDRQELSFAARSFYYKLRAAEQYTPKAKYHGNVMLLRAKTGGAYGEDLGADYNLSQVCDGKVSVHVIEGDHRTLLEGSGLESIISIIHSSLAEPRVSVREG

Fatty acid synthase [16] = biological target: T5, Fatty acid synthase; assay: FAS thioesterase domain inhibitors, dose response, biochemical, kinetic fluorescence intensity (AID 624326); assay type: functional;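 also: rate of fluorescence rise from hydrolysis of a fluorogenic O-methyl fluorescein ester substrate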

## C=CCn1c(C)cc(C(=O)CSc2nc(O)c3ccccc3n2)c1C
[1]
  AC50: 2.6 µM (active)

## COc1ccc(OCC(=O)Nc2ccccc2N2CCCCC2)cc1
[2]
  AC50: 33.4 µM (active)
[3]
  IC50: > 80 µM (inactive)

## CCCCN1C(=O)/C(=C/C=C2\Oc3ccccc3N2CC)SC1=S
[4]
  EC50: 48.2 µM (active)
[1]
  AC50: 171 µM (active)
[5]
  EC50: > 300 µM (not active)

## CCN1C(=O)/C(=C/C=C2\C=CN(CC)c3ccccc32)SC1=S
Vero
  CC50: > 40 µM (active)

## Cn1nnc2cc(C(=O)NCCC3=CCCCC3)ccc21
[6]
  EC50: > 53 µM (inactive)
Protein skinhead-1
  IC50: > 100 µM (inactive)
[7]
  IC50: > 47.1 µM (inactive)

## O=C1CC(c2cc(Br)ccc2F)c2cc3c(cc2N1)CCC3 (configuration not stated)
[8]
  EC50: 7.6 µM (active)
[3]
  IC50: > 80 µM (inactive)
[9]
  EC50: 2.01 µM (active)
[10]
  EC50: 1.48 µM (inconclusive)
[11]
  AC50: < 0.16 µM (active)

## CC1(C)C2CCC1(C)C(OCCNCCOC(=O)Nc1ccccc1)C2 (configuration not stated)
[12]
  AC50: 8.26 µM (active)
[2]
  AC50: 27.5 µM (active)
[13]
  AC50: 27.6 µM (active)
[14]
  AC50: 8.49 µM (active)

## Cc1ccc([N+](=O)[O-])cc1NC(=O)CCc1ccccc1
Fatty acid synthase [15]
  IC50: 14 µM (active)
Fatty acid synthase [16]
  IC50: 17.5 µM (active)

## O=C(O)c1ccc(S(=O)(=O)c2ccccc2)cc1
Protein skinhead-1
  IC50: > 100 µM (inactive)

## Cc1ccc(O)c(NC(=O)c2cc([N+](=O)[O-])ccc2Cl)c1
Fatty acid synthase [15]
  IC50: 13.4 µM (active)
Fatty acid synthase [16]
  IC50: 15.8 µM (active)

## Cc1cc(C)c(C(=O)COC(=O)c2cc([N+](=O)[O-])ccc2NCCO)cc1C
Fatty acid synthase [15]
  IC50: 8.07 µM (active)
Fatty acid synthase [16]
  IC50: 13.3 µM (active)

## COC(=O)c1ccc(CSc2nc3ccccc3o2)cc1
Protein skinhead-1
  IC50: 41.7 µM (active)
